Reference: ChEMBL document CHEMBL1154681, “Structural aspects of flavonoids as inhibitors of human butyrylcholinesterase” (Eur J Med Chem, 2010)
Activity calls are given as the source filed them. The calls are words filed in the database; no cut-off is given here.

Legend:
[1] = Stability in phosphate buffer at pH 7.4 after 90 mins by spectrophotometry; type: physicochemical; settings: pH 7.4, 1.5 h
[2] = target: T1, Cholinesterase (Homo sapiens, UniProt P06276); experiment: Inhibition of human plasma BChE by Ellman's method
[3] = test system: A549; experiment: Cytotoxicity against human A549 cells upto 200 umol/L after 24 hrs by MTS assay; type: cell-based; settings: a549, 24 h
[4] = target: Acetylcholinesterase (Homo sapiens, UniProt P22303); experiment: Inhibition of human recombinant AChE by Ellman's method
[5] = test system: HepG2; experiment: Cytotoxicity against human HepG2 cells upto 200 umol/L after 24 hrs by MTS assay; type: cell-based; settings: hepg2, 24 h
[6] = test system: THP-1; experiment: Cytotoxicity against human THP1 cells after 24 hrs by MTS assay; type: cell-based
[7] = target: T1, Cholinesterase; experiment: Inhibition of human plasma BChE upto 45 mins at 100 umol/L by Ellman's method; type: cell-free

T1 sequence (P06276 whole entry): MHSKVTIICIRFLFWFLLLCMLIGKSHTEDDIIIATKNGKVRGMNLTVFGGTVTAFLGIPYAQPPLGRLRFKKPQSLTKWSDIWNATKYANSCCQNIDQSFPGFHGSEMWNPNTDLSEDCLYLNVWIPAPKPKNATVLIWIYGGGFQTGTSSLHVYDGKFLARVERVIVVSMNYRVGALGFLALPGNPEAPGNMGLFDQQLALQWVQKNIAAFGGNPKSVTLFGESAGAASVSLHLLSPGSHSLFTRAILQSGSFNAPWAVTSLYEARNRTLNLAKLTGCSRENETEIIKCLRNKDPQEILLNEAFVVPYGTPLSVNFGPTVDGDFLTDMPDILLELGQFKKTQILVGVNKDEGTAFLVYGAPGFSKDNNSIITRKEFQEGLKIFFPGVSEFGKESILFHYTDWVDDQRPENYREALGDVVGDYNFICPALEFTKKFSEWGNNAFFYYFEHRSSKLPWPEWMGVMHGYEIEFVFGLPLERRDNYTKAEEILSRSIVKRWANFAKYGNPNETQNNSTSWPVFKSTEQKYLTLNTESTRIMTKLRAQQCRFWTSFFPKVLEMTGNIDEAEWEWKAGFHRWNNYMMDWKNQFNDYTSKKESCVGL
Acetylcholinesterase, sequence (P22303 whole entry): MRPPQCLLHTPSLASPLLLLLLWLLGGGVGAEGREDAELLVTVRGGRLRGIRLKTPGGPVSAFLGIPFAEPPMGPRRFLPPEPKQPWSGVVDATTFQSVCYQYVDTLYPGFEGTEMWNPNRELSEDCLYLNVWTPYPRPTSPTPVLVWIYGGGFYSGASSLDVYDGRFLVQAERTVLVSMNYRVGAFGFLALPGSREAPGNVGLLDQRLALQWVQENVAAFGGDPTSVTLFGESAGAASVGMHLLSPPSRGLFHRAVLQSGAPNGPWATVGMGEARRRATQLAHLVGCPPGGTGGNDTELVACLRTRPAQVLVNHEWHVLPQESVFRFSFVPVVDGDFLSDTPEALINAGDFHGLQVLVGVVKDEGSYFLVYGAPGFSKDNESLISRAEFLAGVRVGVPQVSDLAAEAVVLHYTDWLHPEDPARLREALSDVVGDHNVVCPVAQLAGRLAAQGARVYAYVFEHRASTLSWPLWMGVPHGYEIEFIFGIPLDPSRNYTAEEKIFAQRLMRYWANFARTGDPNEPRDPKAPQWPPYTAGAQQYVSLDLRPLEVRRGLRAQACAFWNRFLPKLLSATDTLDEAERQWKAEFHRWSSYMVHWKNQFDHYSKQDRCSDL

With O=c1cc(-c2ccc(O)cc2)oc2cc(O)cc(O)c12 [APIGENIN] the Stability [1] was “Unstable”, the Ki [2] was 37.4 microM/L and the Activity [3] was “Non-toxic”. The Ki [4] was 121.6 microM/L, the Activity [5] was “Non-toxic” and the IC50 [6] was 60 microM/L.

In the case of O=c1c(O)c(-c2ccc(O)c(O)c2)oc2cc(O)ccc12 [FISETIN], the Stability [1] is reported as “Unstable”, the Ki [2] is reported as 90 microM/L and the Activity [3] is reported as “Non-toxic”. For the same molecule, the Ki [4] was 100.2 microM/L, the Activity [5] was “Non-toxic” and the IC50 [6] was 30 microM/L.

In the case of O=c1c(O)c(-c2ccccc2)oc2cc(O)cc(O)c12 [GALANGIN], the Stability [1] is reported as “Unstable”, the Ki [2] is reported as 6.9 microM/L and the Activity [3] is reported as “Non-toxic”. The Ki [4] was 85.6 microM/L and the Activity [5] was “Non-toxic”.

In the case of O=c1c(O)c(-c2ccc(O)cc2)oc2cc(O)cc(O)c12 [KAEMPFEROL], the Stability [1] is reported as “Unstable”, the inhibition [7] is reported as “inactive” and the Ki [2] is reported as 43.1 microM/L. The Activity [3] was “Non-toxic”, the Ki [4] was 92.8 microM/L and the Activity [5] was “Non-toxic”.

In the case of O=c1cc(-c2ccc(O)c(O)c2)oc2cc(O)cc(O)c12 [LUTEOLIN], the Stability [1] is reported as “Unstable”, the Ki [2] is reported as 166.1 microM/L and the Activity [3] is reported as “Non-toxic”. For the same molecule, the Ki [4] was 65.8 microM/L, the Activity [5] was “Non-toxic” and the IC50 [6] was 70 microM/L.

For O=c1c(O)c(-c2cc(O)c(O)c(O)c2)oc2cc(O)cc(O)c12 [MYRICETIN], the inhibition [7] was “inactive”, the Ki [2] was 71 microM/L and the Activity [3] was “Non-toxic”. The Ki [4] was 37.8 microM/L and the Activity [5] was “Non-toxic”.

With O=c1c(O)c(-c2ccc(O)c(O)c2)oc2cc(O)cc(O)c12 [QUERCETIN] the Stability [1] was “Unstable”, the Ki [2] was 68 microM/L and the Activity [3] was “Non-toxic”. For the same molecule, the Ki [4] was 38.3 microM/L and the Activity [5] was “Non-toxic”.

For C[C@@H]1O[C@@H](OC[C@H]2O[C@@H](Oc3c(-c4ccc(O)c(O)c4)oc4cc(O)cc(O)c4c3=O)[C@H](O)[C@@H](O)[C@@H]2O)[C@H](O)[C@H](O)[C@H]1O [RUTIN], the Stability [1] was “Stable”, the Ki [2] was 501.2 microM/L and the Activity [3] was “Non-toxic”. For the same molecule, the Ki [4] was over 300 microM/L and the Activity [5] was “Non-toxic”.
